Measurements: patent US20050054716A1, “Pharmaceutical compositions and methods of using taxane derivatives” (priority 2002, published 2005)
≈ marks a conversion by molar mass, not a printed value.

What was measured:
Format in all cases: physicochemical
[1] = Intrinsic aqueous solubility; details: desirable physiological pH range
Excerpt: Therefore, it was necessary to formulate the compound in such a way to get the desired solubility at a physiological pH and maintain stability prior to administration.

[2] = Effect of pH on stability, 16.7% v/v ethanol:0.1M citrate buffers; details: 0.2 mg drug/mL, 2 days at 85° C.
Procedure: (§1) The effect of pH on the drug substance stability was also studied. The buffer pH providing maximum stability was determined by comparing the stability of prototype formulations of the drug substance. […] Relative area percents of drug peaks were evaluated following 2 days storage at 85° C. […] Subsequent experiments evaluated stability (1 mg drug/mL) in 75% v/v ethanol:0.01M tartrate buffer. Three mL aliquots of samples were dispensed into 5 cc Type I glass vials and closed with West 4405/50 20 mm stoppers. Percent drug substance remaining, impurities and degradants were evaluated following 18 days storage at 50° C. and compared to initial values.

[3] = Effect of pH on stability, 75% v/v ethanol:0.01M tartrate buffer; details: 18 days at 50° C.
Procedure: as §1

[4] = Solubility in solutions of dehydrated alcohol and POE castor oil; details: Dehydrated Alcohol 7.50% v/v, POE Castor Oil 4% v/v
Procedure: However, this solution cannot be injected directly into patients as the non-aqueous components exceed 20%, thus potentially causing irritation at the injection site. […] It has been shown that the precipitation can be avoided by inclusion of a co-solvent such as polyoxyethylated (POE) castor oil in the formulation. Subsequently, solubility of the drug substance was determined in solutions containing various amounts of dehydrated alcohol and POE castor oil. Approximately 20 mg of drug was added to 3 mL aliquots of the solutions shown below in Table III. Samples were stirred for 16 hours, filtered trough 0.45 micron nylon syringe filters and analyzed by HPLC for drug concentration.

[5] = Dilution of 15 mg/mL ethanol/tartrate solution with aqueous diluents; details: 15 mg/mL in 75% ethanol/10 mM tartrate buffer diluted with 0.9% sodium chloride injection or 5% dextrose injection
[6] = Stability in solution containing ethanol and POE castor oil at 50° C.
Excerpt: However, as shown below in Table IV, drug degradation occurs in a solution containing ethanol and POE castor oil due to peroxide impurities present in POE castor oil. […] As shown below, the stability of the solution containing POE castor oil was much lower than the injection solution without the co-solvent.

[7] = Stability of antioxidant formulation at 25° C. for 4 months; details: for Appearance / Potency / pH: formulation with 0.1% each of three antioxidants
Procedure: A formulation containing 1.5 mg/mL of Compound 1a, 0.075 mL/mL of ethanol, 0.04 mL/mL of POE castor oil in a tartrate buffer and containing 0.1% each of sodium formaldehyde sulfoxylate, L-cysteine HCl and ascorbic acid was prepared. Samples were placed on stability at 25° C. for 4 months. […] Additionally, there were no changes in potency or total oxidative degradants for the samples.

[8] = during 4 months of storage at 25° C.

- ionization [1]: does not ionize
- buffer pH of best stability [2]: 4.5
- apparent pH of most stable solution [3]: 5.4
- tartrate buffer pH of most stable solution [3]: 3.8
- Solubility [4]: 2380 µg/mL (≈ 2600 µM)
- effect of aqueous dilution [5]: drug precipitation
- Total Impurities ([6]; 6 days @ 50° C.): 10.9 area %
- Total Impurities ([6]; 16 days @ 50° C.): 16.5 area %
- Total Impurities ([6]; Initial): 2.1 area %
- changes in appearance or pH [7, 8]: no significant changes
- changes in potency or total oxidative degradants [7, 8]: no changes
- Appearance ([7]; 2 Month at 25° C.): Clear, colorless
- Potency ([7]; 2 Month at 25° C.): 1460 µg/mL (≈ 1600 µM)
- pH ([7]; 2 Month at 25° C.): 3.56
- Appearance ([7]; 4 Month at 25° C.): Clear, colorless
- Potency ([7]; 4 Month at 25° C.): 1480 µg/mL (≈ 1620 µM)
- pH ([7]; 4 Month at 25° C.): 3.57
- Appearance ([7]; Initial): Clear, colorless
- Potency ([7]; Initial): 1440 µg/mL (≈ 1580 µM)
- pH ([7]; Initial): 3.71
SMILES: CSCO[C@H]1C[C@H]2OC[C@@]2(OC(C)=O)[C@H]2[C@H](OC(=O)c3ccccc3)[C@]3(O)C[C@H](OC(=O)[C@H](O)[C@@H](NC(=O)c4ccccc4)c4ccccc4)C(C)=C([C@@H](OC(C)=O)C(=O)[C@]12C)C3(C)C [Compound Ia, 7-O-methylthiomethylpaclitaxel]
